The values below come from patent US20240317708A1, “INHIBITORS OF TRANSGLUTAMINASES” (ZEDIRA GMBH, priority 2021, published 2024).

Molecules are shown by their SMILES. pIC50: −log10 of the molar value.

Data set [1] deals with T1, recombinant human transglutaminase 2 (Homo sapiens, UniProt P21980).
T1 construct: purchased Zedira T022
T1 sequence (P21980 1-687): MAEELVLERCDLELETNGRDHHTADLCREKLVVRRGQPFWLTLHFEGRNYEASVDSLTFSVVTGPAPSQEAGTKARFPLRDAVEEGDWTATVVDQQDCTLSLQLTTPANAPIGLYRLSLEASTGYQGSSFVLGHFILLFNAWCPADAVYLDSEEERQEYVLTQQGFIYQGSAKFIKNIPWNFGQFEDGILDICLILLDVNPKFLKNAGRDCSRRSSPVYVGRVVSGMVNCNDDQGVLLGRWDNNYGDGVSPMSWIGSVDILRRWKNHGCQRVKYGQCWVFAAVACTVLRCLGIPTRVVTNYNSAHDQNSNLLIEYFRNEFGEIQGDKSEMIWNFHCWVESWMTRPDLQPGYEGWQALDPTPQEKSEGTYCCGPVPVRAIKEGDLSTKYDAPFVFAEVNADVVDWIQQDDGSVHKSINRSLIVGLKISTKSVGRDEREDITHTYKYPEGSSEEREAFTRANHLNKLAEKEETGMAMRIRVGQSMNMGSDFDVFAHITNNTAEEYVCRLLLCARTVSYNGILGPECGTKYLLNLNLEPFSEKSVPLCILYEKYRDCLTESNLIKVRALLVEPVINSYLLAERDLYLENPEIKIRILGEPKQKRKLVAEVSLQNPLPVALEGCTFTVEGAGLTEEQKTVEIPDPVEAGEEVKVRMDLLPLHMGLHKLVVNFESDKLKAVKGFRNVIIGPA
The data set can be described thus: Transglutaminase assay (dansylcadaverine incorporation into dimethylcasein, DCC-assay). The format is biochemical. To be noted: for pIC50: recombinant human TG2 10 nM, dansylcadaverine/dimethylcasein, 37° C. Put shortly:
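IC50 derived from fluorescence slope between 20 and 30 min (λex 330 nm, λem 500 nm, 37 °C), expressed relative to a 2% DMSO control. Reaction: 10 nM recombinant human TG2, 4 μM dimethylcasein, 16.7 μM dansylcadaverine, 10 mM CaCl2 and glutathione, pH 8.0.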

Data set [2] in a line: Log D shake flask method (octanol / PBS pH 7.4, HPLC). Type of data set: physicochemical. To be noted: octanol/phosphate-buffered saline (PBS); octanol / PBS pH 7.4, shake flask. How it is done: In order to classify the inventive compounds according to their lipophilicity, Log D values (distribution coefficient) were determined by means of the well-established shake flask method, measuring the partition of a compound between an octanol and phosphate-buffered saline (PBS, pH 7.4) by HPLC.

Data set [3] can be described thus: Caco-2 permeability assay (CacoReady kit). Particulars: human. The format is in vitro ADME. The method in brief:
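Read-out is the permeability coefficient Papp, obtained from transport across a Caco-2 barrier prepared from a ready-to-use kit following the manufacturer's instructions.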
(In general: Passage across Caco-2 layers is used to estimate intestinal permeability.)

In the case of `COC(=O)/C=C/CC[C@H](NC(=O)c1nc(C2(C)CC2)no1)C(=O)Nc1cccn(CC(=O)NC2C3CC4CC2CC(C(N)=O)(C4)C3)c1=O` (stereo partly drawn) [III-167, (S,E)-methyl 7-(1-(2-(4-aminoadamantane-1-carboxamide)-2-oxoethyl)-2-oxo-1,2-dihydropyridin-3-ylamino)-6-(3-(1-methylcyclopropyl)-1,2,4-oxadiazole-5-carboxamido)-7-oxohept-2-enoate], the pIC50 in data set [1] was 5.82 to 6.60. Moreover, in data set [2], the logD is below 1. In data set [3], this compound registered a Papp below 1 ×10⁻⁶ cm/s.

For `Cc1cc(C(=O)N[C@@H](CC/C=C/C(=O)Nc2ccccc2)C(=O)Nc2cccn(CC(=O)NC34CC(C3)C4)c2=O)c(C)o1` [III-153, (S,E)-N7-(1-(2-(bicyclo[1.1.1]pentan-1-ylamino)-2-oxoethyl)-2-oxo-1,2-dihydropyridin-3-yl)-6-(2,5-dimethylfuran-3-carboxamido)-N1-phenylhept-2-enediamide], the pIC50 in data set [1] was 6.60 to 7.60. Moreover, in data set [2], the logD was 1 to 3. This compound displayed a Papp in data set [3] of 1 to 10 ×10⁻⁶ cm/s.

As to `COC(=O)/C=C/CC[C@H](NC(=O)c1ncn(C)n1)C(=O)Nc1cccn(CC(=O)NC2C3CC4CC(C3)CC2C4)c1=O` (stereo partly drawn) [III-105, (S,E)-methyl 7-(1-(2-(2-adamantylamino)-2-oxoethyl)-2-oxo-1,2-dihydropyridin-3-ylamino)-6-(1-methyl-1H-1,2,4-triazole-3-carboxamido)-7-oxohept-2-enoate], the pIC50 in data set [1] was 6.60 to 7.60. Further, the logD in data set [2] lay within 1 to 3. The Papp in data set [3] is 1 to 10 ×10⁻⁶ cm/s.

With `COC(=O)/C=C/CC[C@H](NC(=O)c1cccnc1)C(=O)Nc1cccn(CC(=O)NCCc2ccccc2)c1=O` [Ref. 5, reference compound], the “times less potent in comparison to compound III-83” value in data set [1] (IC50 ratio vs III-83, Table 1) is given as “more than 25 times”. The pIC50 in data set [1] was 5.82 to 6.60. In data set [2], this compound showed a logD of 1 to 3. Further, the apparent permeability (Papp) in data set [3] is below 1 ×10⁻⁶ cm/s.

Turning to `COC(=O)/C=C/CC[C@H](NC(=O)c1ccnn1C)C(=O)Nc1cccn(CC(=O)N[C@@H]2C[C@@H]3CC[C@H]2C3)c1=O` [III-117, (S,E)-methyl 7-(1-(2-((1S,2R,4R)-bicyclo[2.2.1]heptan-2-ylamino)-2-oxoethyl)-2-oxo-1,2-dihydropyridin-3-ylamino)-6-(1-methyl-1H-pyrazole-5-carboxamido)-7-oxohept-2-enoate], the pIC50 in data set [1] is above 7.60. In data set [2], this compound registered a logD of 1 to 3. This compound had a Papp in data set [3] below 1 ×10⁻⁶ cm/s.

`COC(=O)/C=C/CC[C@H](NC(=O)c1noc(C)n1)C(=O)Nc1cccn(CC(=O)NC23CC(C2)C3)c1=O` [III-168, (S,E)-methyl 7-(1-(2-(bicyclo[1.1.1]pentan-1-ylamino)-2-oxoethyl)-2-oxo-1,2-dihydropyridin-3-ylamino)-6-(5-methyl-1,2,4-oxadiazole-3-carboxamido)-7-oxohept-2-enoate]: the pIC50 in data set [1] was 5.82 to 6.60. This compound yielded a logD in data set [2] below 1. For the same compound, the Papp in data set [3] is below 1 ×10⁻⁶ cm/s.

As to `COC(=O)/C=C/CC[C@H](NC(=O)c1cnnn1C)C(=O)Nc1cccn(CC(=O)N[C@@H]2C[C@@H]3CC[C@H]2C3)c1=O` [III-116, (S,E)-methyl 7-(1-(2-((1S,2R,4R)-bicyclo[2.2.1]heptan-2-ylamino)-2-oxoethyl)-2-oxo-1,2-dihydropyridin-3-ylamino)-6-(1-methyl-1H-1,2,3-triazole-5-carboxamido)-7-oxohept-2-enoate], in data set [1], the negative logarithm of the IC50 (pIC50) is above 7.60. In addition, the logD in data set [2] is below 1. Also, the Papp in data set [3] was below 1 ×10⁻⁶ cm/s.

Regarding `COC(=O)/C=C/CC[C@H](NC(=O)[C@H]1CCNC1)C(=O)Nc1cccn(CC(=O)NC2C3CC4CC(C3)CC2C4)c1=O` (stereo partly drawn) [III-26, (S,E)-methyl 7-(1-(2-(2-adamantylamino)-2-oxoethyl)-2-oxo-1,2-dihydropyridin-3-ylamino)-7-oxo-6-((S)-pyrrolidine-3-carboxamido)hept-2-enoate], the pIC50 in data set [1] is 6.60 to 7.60. This compound also registered a logD in data set [2] of 1 to 3. For the same compound, the Papp in data set [3] was in the range of 1 to 10 ×10⁻⁶ cm/s.

As for `COC(=O)/C=C/CC[C@H](NC(=O)c1ccnn1C)C(=O)Nc1cccn(CC(=O)NC23CC4CC(C)(CC(C)(C4)C2)C3)c1=O` [III-113, (S,E)-methyl 7-(1-(2-(3,5-dimethyladamantane-1-amino)-2-oxoethyl)-2-oxo-1,2-dihydropyridin-3-ylamino)-6-(1-methyl-1H-pyrazole-5-carboxamido)-7-oxohept-2-enoate], the pIC50 in data set [1] is above 7.60. Moreover, the logD in data set [2] lay within 1 to 3. The compound also yielded a Papp in data set [3] below 1 ×10⁻⁶ cm/s.

For the compound `COC(=O)/C=C/CC[C@H](NC(=O)c1cccnn1)C(=O)Nc1cccn(CC(=O)NC2C3CC4CC(C3)CC2C4)c1=O` (stereo partly drawn) [III-86, (S,E)-methyl 7-(1-(2-(2-adamantylamino)-2-oxoethyl)-2-oxo-1,2-dihydropyridin-3-ylamino)-7-oxo-6-(pyridazine-3-carboxamido)hept-2-enoate], the pIC50 in data set [1] was above 7.60. The compound further yielded a logD in data set [2] of 1 to 3. In addition, the Papp in data set [3] was below 1 ×10⁻⁶ cm/s.

On to `COC(=O)/C=C/CC[C@H](NC(=O)c1snnc1C)C(=O)Nc1cccn(CC(=O)N[C@H]2C[C@H]3CC[C@]2(C)C3(C)C)c1=O` [III-120, (S,E)-methyl 6-(4-methyl-1,2,3-thiadiazole-5-carboxamido)-7-oxo-7-(2-oxo-1-(2-oxo-2-((1R,2S,4R)-1,7,7-trimethylbicyclo[2.2.1]heptan-2-ylamino)ethyl)-1,2-dihydropyridin-3-ylamino)hept-2-enoate], for which, in data set [1], the pIC50 was above 7.60. Also, in data set [2], the logD fell in the range of 1 to 3. This compound came in with a Papp in data set [3] below 1 ×10⁻⁶ cm/s.

In the case of `O=C(/C=C/CC[C@H](NC(=O)c1cnc2ccc(OC(F)(F)F)cc2c1O)C(=O)Nc1cccn(CC(=O)NC23CC(C2)C3)c1=O)NC1CC1` [III-144, (S,E)-N7-(1-(2-(bicyclo[1.1.1]pentan-1-ylamino)-2-oxoethyl)-2-oxo-1,2-dihydropyridin-3-yl)-N1-cyclopropyl-6-(4-hydroxy-6-(trifluoromethoxy)quinoline-3-carboxamido)hept-2-enediamide], in data set [1], the pIC50 was 5.82 to 6.60. This compound also yielded a logD in data set [2] of 3 to 5. For the same compound, the Papp in data set [3] is below 1 ×10⁻⁶ cm/s.

In the case of `COC(=O)/C=C/CC[C@H](NC(=O)c1cnc(NC(C)=O)s1)C(=O)Nc1cccn(CC(=O)NC23CC(C2)C3)c1=O` [III-162, (S,E)-methyl 6-(2-acetamidothiazole-5-carboxamido)-7-(1-(2-(bicyclo[1.1.1]pentan-1-ylamino)-2-oxoethyl)-2-oxo-1,2-dihydropyridin-3-ylamino)-7-oxohept-2-enoate], the pIC50 in data set [1] is 5.82 to 6.60. In data set [2], this compound returned a logD below 1. The compound also came in with a Papp in data set [3] below 1 ×10⁻⁶ cm/s.

In the case of `COC(=O)/C=C/CC[C@H](NC(=O)c1oc2ccccc2c1C)C(=O)Nc1cccn(CC(=O)NC(C)C23CC4CC(CC(C4)C2)C3)c1=O` (stereo partly drawn) [III-57, (S,E)-methyl 7-(1-(2-(1-(1-adamantyl)ethanamino)-2-oxoethyl)-2-oxo-1,2-dihydropyridin-3-ylamino)-6-(3-methylbenzofuran-2-carboxamido)-7-oxohept-2-enoate], in data set [1], the pIC50 is 6.60 to 7.60. In addition, the logD in data set [2] lay in the range of 3 to 5. The compound further showed a Papp in data set [3] of 1 to 10 ×10⁻⁶ cm/s.

Take `COC(=O)/C=C/CC[C@H](NC(=O)c1oc2ccccc2c1C)C(=O)Nc1cccn(CC23CC4CC(CC(O)(C4)C2)C3)c1=O` [III-80, (6S,E)-methyl 7-(1-((3-hydroxy-1-adamantyl)methyl)-2-oxo-1,2-dihydropyridin-3-ylamino)-6-(3-methylbenzofuran-2-carboxamido)-7-oxohept-2-enoate]: the pIC50 in data set [1] is 5.82 to 6.60. This compound also displayed a logD in data set [2] of 1 to 3. This compound displayed a Papp in data set [3] below 1 ×10⁻⁶ cm/s.

As for `COC(=O)/C=C/CC[C@H](NC(=O)c1[nH]c2ccccc2c1C)C(=O)Nc1cccn(CC(=O)NC2C3CC4CC(C3)CC2C4)c1=O` (stereo partly drawn) [III-10, (S,E)-methyl 7-(1-(2-(2-adamantylamino)-2-oxoethyl)-2-oxo-1,2-dihydropyridin-3-ylamino)-6-(3-methyl-1H-indole-2-carboxamido)-7-oxohept-2-enoate], the pIC50 in data set [1] is above 7.60. Also, the log distribution coefficient (logD) in data set [2] lay within 3 to 5. The compound further yielded a Papp in data set [3] of 1 to 10 ×10⁻⁶ cm/s.

For the compound `COC(=O)/C=C/CC[C@H](NC(=O)c1cnn(C)c1)C(=O)Nc1cccn(CC(=O)NC2C3CC4CC(C3)CC2C4)c1=O` (stereo partly drawn) [III-130, (S,E)-methyl 7-(1-(2-(2-adamantylamino)-2-oxoethyl)-2-oxo-1,2-dihydropyridin-3-ylamino)-6-(1-methyl-1H-pyrazole-4-carboxamido)-7-oxohept-2-enoate], in data set [1], the pIC50 is 6.60 to 7.60. In data set [2], this compound showed a logD of 1 to 3. Besides, the Papp in data set [3] was below 1 ×10⁻⁶ cm/s.

In general, pIC50 refers to −log10 of the IC50, conventionally taken in molar units. The term logD denotes the decadic logarithm of the distribution of all forms, ionised or not, between an organic phase and buffer at a given pH. The Papp is the rate of passage across a membrane or cell layer, normalised by area and donor concentration. A low value points to poor permeation.
